Consider one molecule from patent US20090123419A1, “TREATMENT OF UTERINE CANCER AND OVARIAN CANCER WITH A PARP INHIBITOR ALONE OR IN COMBINATION WITH ANTI-TUMOR AGENTS” (BiPar Sciences, priority 2007, published 2009).

In data set [1] the test system is human tumor cells including breast, colon, prostate, cervix, lung, and ovarian cancers. The data set can be described thus: In vitro activity of BA against cancer cells. It counts as cell-based.
Data set [2] has as its system normal cells. The data set can be described thus: Toxic effects of BA in normal cells. It counts as cell-based.
For data set [3], the system named is human OVCAR-3 (NIH-OVCAR-3) ovarian adenocarcinoma. The data set can be described thus: OVCAR-3 ovarian carcinoma xenograft efficacy study. It counts as in vivo, SCID mice. The procedure:
The human OVCAR-3 (NIH-OVCAR-3) ovarian adenocarcinoma utilized in the study is maintained in athymic nude mice by serial engraftment. The human SW620 colon adenocarcinoma utilized in the study is maintained in nude mice by serial engraftment.
Tumor weight may be estimated with the assumption that 1 mg is equivalent to 1 mm^3 of tumor volume. Tumor size, in mm^3, was calculated from: […]
Oral group receives BA p.o. (orally) twice daily from D1 p.m. until D68 a.m. (b.i.d. to end, i.e. twice daily dosing for the duration of the study). Alzet model osmotic pumps are implanted on Days 1, 15, and 29. The pumps are pre-warmed for 1 hour at 37° C., and then implanted subcutaneously (s.c.) in the left flanks of isofluoraneanesthetized mice. Each pump delivers a total dose of 25 mg/kg/week of BA over 14 days. BA is administrated intraperitoneally (i.p.) 15 mg/kg respectively twice weekly.
Each animal is euthanized when its neoplasm reached the predetermined endpoint size (1,000 mm^3).
where: T=median TTE for a treatment group, C=median TTE for control Group 1.

In data set [4] the test system is advanced solid tumors. The data set can be described thus: Phase 1b study of BA in combination with chemotherapy, clinical response via RECIST. It counts as in vivo, human. On the procedure:
The protocol has been amended to evaluate BA in combination with chemotherapy in specific tumor types.
BA plus cytotoxic chemotherapy (CTX)
BA Dosing: • Twice weekly; i.v. infusion • Standard 3+3 design for BA dose escalation • Dose levels studied: 2.0, 2.8, 4.0, 5.6, 8.0, and up to 11.2 mg/kg
Clinical response via RECIST every 2 cycles
Subjects— 18 years old with a refractory, advanced solid tumor, ECOG PS of <=2, and adequate hematological, renal, and hepatic function
No restriction on number of prior chemotherapeutic regimens

Data set [5] concerns the target T1, PARP (Homo sapiens, UniProt P09874).
T1 construct: endogenous in cells; host or cells: peripheral blood mononuclear cells from patients dosed with BA
The data set can be described thus: PARP activity assay in peripheral blood mononuclear cells (PBMCs) from patients. It is filed as in vivo. As to conditions: for PARP inhibition in PBMCs: after multiple dosing with BA doses of 2.8 mg/kg or higher, FIG. 5, 2.8 mg/kg. The procedure:
Whole blood is collected into EDTA vacutainers and human PBMCs are obtained by BD Vacutainer™ CPT™ Cell Preparation kit according to the manufacturer's instructions (BD Vacutainer™, REF 362760). Tumor samples are collected in a sterile container and placed immediately on ice. Within 30 minutes, tumor samples are snap-frozen in liquid nitrogen and stored at −80° C. until homogenized for analysis. The specimen is defrosted on ice and the wet weight is documented. The tissue is homogenized using isotonic buffer [7 mmol/L HEPES, 26 mmol/L KCl, 0.1 mmol/L dextran, 0.4 mmol/L EGTA, 0.5 mmol/L MgCl2, 45 mmol/L sucrose (pH 7.8)]. The homogenate is kept on ice throughout the process, and homogenization is done in 10-second bursts to prevent undue warming of the sample. Unless assayed on the day of homogenization, samples are refrozen to −80° C. and stored at this temperature until analyzed.
Cell preparations are defrosted rapidly at room temperature and washed twice in ice-cold PBS. […] Maximally stimulated PARP activity is measured in replicate samples of 20,000 cells in a reaction mixture containing […] NAD+ and 10 mg/mL oligonucleotide in a reaction buffer of 100 mmol/L Tris-HCl, 120 mmol/L MgCl2 (pH 7.8) in a final volume of […] as described previously (24) at 26° C. in an oscillating water bath. […] Purified PAR standards are loaded onto each membrane (0-25 pmol monomer equivalent) to generate a standard curve and allow quantification. […] Chemiluminesence detected during a 5-minute exposure is measured using a Fuji LAS3000 UV Illuminator (Raytek, Sheffield, United Kingdom) and digitized using the imaging software (Fuji LAS Image version 1.1, Raytek). The acquired image is analyzed using Aida Image Analyzer (version 3.28.001), and results are expressed in LAU/mm2. Three background areas on the exposed blot are measured and the mean of the background signal from the membrane is subtracted from all results. The PAR polymer standard curve is analyzed using an unweighted one-site binding nonlinear regression model and unknowns read off the standard curve so generated. […]

The structures appear in SMILES notation.

T1 sequence (P09874 whole entry): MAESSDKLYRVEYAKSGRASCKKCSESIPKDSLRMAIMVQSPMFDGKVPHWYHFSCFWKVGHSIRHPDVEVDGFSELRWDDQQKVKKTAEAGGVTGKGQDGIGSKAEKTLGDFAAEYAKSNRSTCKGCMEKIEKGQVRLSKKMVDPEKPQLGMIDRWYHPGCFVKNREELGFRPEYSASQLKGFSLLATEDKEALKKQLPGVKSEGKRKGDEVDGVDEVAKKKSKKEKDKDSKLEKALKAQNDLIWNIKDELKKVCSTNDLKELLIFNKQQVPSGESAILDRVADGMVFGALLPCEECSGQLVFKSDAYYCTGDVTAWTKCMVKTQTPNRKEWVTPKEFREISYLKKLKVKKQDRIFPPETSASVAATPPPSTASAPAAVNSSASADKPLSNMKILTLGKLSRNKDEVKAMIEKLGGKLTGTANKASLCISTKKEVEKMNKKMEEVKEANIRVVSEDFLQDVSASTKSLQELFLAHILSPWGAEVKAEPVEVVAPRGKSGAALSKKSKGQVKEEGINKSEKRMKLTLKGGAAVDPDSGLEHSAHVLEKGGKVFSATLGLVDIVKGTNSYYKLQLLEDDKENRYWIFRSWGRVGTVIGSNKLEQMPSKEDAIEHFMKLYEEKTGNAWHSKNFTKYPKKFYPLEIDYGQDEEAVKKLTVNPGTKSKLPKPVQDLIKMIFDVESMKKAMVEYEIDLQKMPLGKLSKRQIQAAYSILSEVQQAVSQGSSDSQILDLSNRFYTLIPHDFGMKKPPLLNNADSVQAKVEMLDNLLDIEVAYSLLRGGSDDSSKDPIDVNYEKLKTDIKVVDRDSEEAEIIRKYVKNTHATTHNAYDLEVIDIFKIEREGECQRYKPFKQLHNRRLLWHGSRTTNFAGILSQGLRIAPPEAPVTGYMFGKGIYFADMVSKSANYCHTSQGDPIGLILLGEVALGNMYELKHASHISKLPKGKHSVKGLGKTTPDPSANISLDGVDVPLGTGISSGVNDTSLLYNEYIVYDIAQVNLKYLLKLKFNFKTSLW

Consider `NC(=O)c1ccc(I)c([N+](=O)[O-])c1` [BA, 4-iodo-3-nitrobenzamide], for which, in data set [1] (in vitro, breast, colon, prostate, cervix, lung, and ovarian cancers), the “proliferation of human tumor cells” value was “inhibits the proliferation”. Moreover, the “activity against cancer cells in vitro” value in data set [1] (including drug resistant cell lines) is “active against a broad range of cancer cells”. Moreover, the “toxic effects in normal cells” value in data set [2] is on record as “without exerting toxic effects in normal cells”. Further, in data set [3] (OVCAR-3 xenograft in SCID mice), the tumor growth result is on record as “significantly inhibits tumor growth”. The “survival compared with the untreated control” value in data set [3] (different routes of administration, FIG. 3) is listed as “improves survival”. Moreover, the “subjects with stable disease for 2 cycles of treatment or more” value in data set [4] (BA plus cytotoxic chemotherapy) is “Approximately 80%”. For the same molecule, in data set [4] (after 4 cycles of BA in combination with topotecan, FIG. 4), the “tumor response of a patient with advanced ovarian cancer” value is “partial response”. In addition, in data set [4] (of 66 subjects, BA plus cytotoxic chemotherapy), the “subjects demonstrating some clinical benefit” value is on record as 53 subjects. Also, the “liver lesion (target lesion) size after treatment” value in data set [4] (one ovarian cancer patient, 4 cycles BA with topotecan, from 4.6 cm) is reported as 1.5 cm. The “CA 27-29 biomarker after treatment” value in data set [4] (one ovarian cancer patient, 4 cycles BA with topotecan, from >300) is reported as less than 200. Moreover, the “PARP inhibition in PBMCs” value in data set [5] was “significant and prolonged PARP inhibition”; in data set [5] (listed as 4-iodo-3-nitrobenzamide), “PARP inhibition”. In addition, the “biologically relevant dose that elicits significant and sustained PARP inhibition” value in data set [5] (at effective preclinical blood concentrations) was 2.8 mg/kg.
